Experimental data taken from patent US20240190874A1, “SMALL MOLECULE DEGRADERS OF ANDROGEN RECEPTOR” (THE REGENTS OF THE UNIVERSITY OF MICHIGAN, priority 2021, published 2024).

Columns and labels:
Assay type in all cases: cell-based
[1] = test system: VCaP cells; assay: Cellular potency (IC50) in VCaP cells; settings: Homo sapiens, VCaP
Experimental: (§1) Biological Assays. LNCaP and VCaP cells used were purchased from American Type Culture Collection (ATCC). LNCaP were grown in RPMI 1640 (Invitrogen) and VCaP cells were grown in DMEM with Glutamax (Invitrogen). All of the cells were supplemented with 10% fetal bovine serum (Invitrogen) at 37° C. in a humidified 5% CO2 incubator.

[2] = test system: LNCaP cells; assay: Cellular potency (IC50) in LNCaP cells; settings: Homo sapiens, LNCaP
Experimental: as §1

[3] = target: T1, AR (Homo sapiens, UniProt P10275); assay: Degradation of AR in VCaP cells; settings: VCaP cells; for Dmax: VCaP
T1 construct: Degradation of AR; Cellular potency; host or cells: VCaP cells
T1 sequence (P10275 1-920): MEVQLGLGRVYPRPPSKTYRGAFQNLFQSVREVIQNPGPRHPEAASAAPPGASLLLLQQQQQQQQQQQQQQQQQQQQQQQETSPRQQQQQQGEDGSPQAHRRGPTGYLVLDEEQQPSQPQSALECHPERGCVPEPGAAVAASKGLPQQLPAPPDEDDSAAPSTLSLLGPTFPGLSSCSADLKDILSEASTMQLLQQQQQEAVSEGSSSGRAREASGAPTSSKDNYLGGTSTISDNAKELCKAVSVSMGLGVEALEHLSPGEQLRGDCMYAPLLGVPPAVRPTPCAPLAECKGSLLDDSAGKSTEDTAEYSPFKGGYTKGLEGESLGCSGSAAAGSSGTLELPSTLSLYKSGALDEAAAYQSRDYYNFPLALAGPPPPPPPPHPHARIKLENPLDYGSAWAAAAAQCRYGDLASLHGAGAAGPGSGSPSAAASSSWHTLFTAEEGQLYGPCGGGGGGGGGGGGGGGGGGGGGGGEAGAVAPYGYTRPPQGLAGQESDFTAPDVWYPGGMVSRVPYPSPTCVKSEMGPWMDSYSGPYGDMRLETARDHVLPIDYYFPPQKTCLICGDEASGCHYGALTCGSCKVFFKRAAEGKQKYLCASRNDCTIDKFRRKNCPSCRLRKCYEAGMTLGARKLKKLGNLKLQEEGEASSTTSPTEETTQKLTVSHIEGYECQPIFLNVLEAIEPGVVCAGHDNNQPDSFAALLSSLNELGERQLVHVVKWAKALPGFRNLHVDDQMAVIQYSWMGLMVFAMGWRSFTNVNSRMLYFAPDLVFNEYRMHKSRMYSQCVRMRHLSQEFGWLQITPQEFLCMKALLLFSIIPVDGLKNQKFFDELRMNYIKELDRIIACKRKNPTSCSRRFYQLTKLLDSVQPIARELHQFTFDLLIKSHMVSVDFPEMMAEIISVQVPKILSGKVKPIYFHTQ
Experimental: as §1

Row | SMILES | IC50 [1] [nM] | IC50 [2] [nM] | DC50 [3] [nM] | Dmax [3] [%]
1 | C[C@H]1CC2(CCN(c3ccc(N4CCN(CC5CCN(c6ccc7c(c6)C(=O)N(C6CCC(=O)NC6=O)C7=O)CC5)CC4)nn3)CC2)CN1c1ccc(C#N)c(Cl)c1 (some centres unmarked) [compound 48] | < 10 | < 10 | < 1 | > 90
2 | C[C@H]1CC2(CCN(c3cnc(N4CCN(CC5CN(c6ccc7c(c6)C(=O)N(C6CCC(=O)NC6=O)C7=O)C5)CC4)cn3)CC2)CN1c1ccc(C#N)c(Cl)c1 (some centres unmarked) [compound 49] | < 10 | < 10 | < 1 | > 90
3 | C[C@H]1CC2(CCN(c3cnc(N4CCN(CC5CCN(c6ccc7c(c6)C(=O)N(C6CCC(=O)NC6=O)C7=O)CC5)CC4)cn3)CC2)CN1c1ccc(C#N)c(Cl)c1 (some centres unmarked) [compound 50] | < 100 | < 100 | < 10 | > 90
4 | C[C@H]1CC2(CCN(c3ccc(N4CCC(CN5CCN(c6ccc7c(c6)C(=O)N(C6CCC(=O)NC6=O)C7=O)CC5)CC4)cn3)CC2)CN1c1ccc(C#N)c(Cl)c1 (some centres unmarked) [compound 51] | < 100 | < 100 | < 10 | > 90
5 | C[C@H]1CC2(CCN(c3ccc(N4CCC(CN5Cc6cc7c(cc6C5)C(=O)N(C5CCC(=O)NC5=O)C7=O)CC4)cn3)CC2)CN1c1ccc(C#N)c(Cl)c1 (some centres unmarked) [compound 52] | < 100 | < 100 | < 10 | > 90
6 | C[C@H]1CC2(CCN(c3ccc(N4CCC(CN5CCN(c6ccc7c(c6)C(=O)N(C6CCC(=O)NC6=O)C7=O)CC5)CC4)nc3)CC2)CN1c1ccc(C#N)c(Cl)c1 (some centres unmarked) [compound 53] | < 100 | < 100 | < 10 | > 90
7 | C[C@H]1CC2(CCN(c3ccc(N4CCC(CN5Cc6cc7c(cc6C5)C(=O)N(C5CCC(=O)NC5=O)C7=O)CC4)nc3)CC2)CN1c1ccc(C#N)c(Cl)c1 (some centres unmarked) [compound 54] | < 100 | < 100 | < 10 | > 90
8 | C[C@H]1CC2(CCN(c3ccc(N4CCC(CN5CCN(c6ccc7c(c6)C(=O)N(C6CCC(=O)NC6=O)C7=O)CC5)CC4)nn3)CC2)CN1c1ccc(C#N)c(Cl)c1 (some centres unmarked) [compound 55] | < 100 | < 100 | < 10 | > 90
9 | C[C@H]1CC2(CCN(c3ccc(N4CCC(CN5Cc6cc7c(cc6C5)C(=O)N(C5CCC(=O)NC5=O)C7=O)CC4)nn3)CC2)CN1c1ccc(C#N)c(Cl)c1 (some centres unmarked) [compound 56] | < 100 | < 100 | < 10 | > 90
10 | C[C@H]1CC2(CCN(c3ccc(OC4CCN(C5CN(c6ccc7c(c6)C(=O)N(C6CCC(=O)NC6=O)C7=O)C5)CC4)cc3)CC2)CN1c1ccc(C#N)c(Cl)c1 (some centres unmarked) [compound 57] | < 10 | < 10 | < 1 | > 90
11 | C[C@H]1CC2(CCN(c3ccc(OC4CCN(C5CCN(c6ccc7c(c6)C(=O)N(C6CCC(=O)NC6=O)C7=O)CC5)CC4)cc3)CC2)CN1c1ccc(C#N)c(Cl)c1 (some centres unmarked) [compound 58] | < 100 | < 100 | < 10 | > 90
12 | C[C@H]1CC2(CCN(c3ccc(OC4CN(C5CN(c6ccc7c(c6)C(=O)N(C6CCC(=O)NC6=O)C7=O)C5)C4)cc3)CC2)CN1c1ccc(C#N)c(Cl)c1 (some centres unmarked) [compound 59] | < 10 | < 10 | < 1 | > 90
13 | C[C@H]1CC2(CCN(c3ccc(OC4CN(C5CCN(c6ccc7c(c6)C(=O)N(C6CCC(=O)NC6=O)C7=O)CC5)C4)cc3)CC2)CN1c1ccc(C#N)c(Cl)c1 (some centres unmarked) [compound 60] | < 10 | < 10 | < 1 | > 90
14 | C[C@H]1CC2(CCN(c3ccc(OC4CCN(C5CN(c6ccc7c(c6)C(=O)N(C6CCC(=O)NC6=O)C7=O)C5)CC4)cn3)CC2)CN1c1ccc(C#N)c(Cl)c1 (stereo partly drawn) [compound 61, 2-chloro-4-((3S)-8-(5-((1-(1-(2-(2,6-dioxopiperidin-3-yl)-1,3-dioxoisoindolin-5-yl)azetidin-3-yl)piperidin-4-yl)oxy)pyridin-2-yl)-3-methyl-2,8-diazaspiro-[4.5]decan-2-yl)benzonitrile] | < 10 | < 10 | – | > 90
15 | C[C@H]1CC2(CCN(c3ccc(OC4CCN(C5CN(c6ccc7c(c6)C(=O)N(C6CCC(=O)NC6=O)C7=O)C5)CC4)nn3)CC2)CN1c1ccc(C#N)c(Cl)c1 (some centres unmarked) [compound 62] | < 10 | < 10 | < 1 | > 90
16 | C[C@H]1CC2(CCN(c3ccc(OC4CCN(C5CN(c6ccc7c(c6)C(=O)N(C6CCC(=O)NC6=O)C7=O)C5)CC4)nc3)CC2)CN1c1ccc(C#N)c(Cl)c1 (some centres unmarked) [compound 63] | < 10 | < 10 | < 1 | > 90
17 | C[C@H]1CC2(CCN(c3ccc(OC4CN(C5CN(c6ccc7c(c6)C(=O)N(C6CCC(=O)NC6=O)C7=O)C5)C4)cn3)CC2)CN1c1ccc(C#N)c(Cl)c1 (some centres unmarked) [compound 69] | < 10 | < 10 | < 1 | > 90
18 | C[C@H]1CC2(CCN(c3ccc(OC4CN(C5CCN(c6ccc7c(c6)C(=O)N(C6CCC(=O)NC6=O)C7=O)CC5)C4)cn3)CC2)CN1c1ccc(C#N)c(Cl)c1 (some centres unmarked) [compound 70] | < 1000 | < 1000 | < 100 | 50 to 70
19 | C[C@H]1CC2(CCN(c3ccc(OC4CN(C5CN(c6ccc7c(c6)C(=O)N(C6CCC(=O)NC6=O)C7=O)C5)C4)nc3)CC2)CN1c1ccc(C#N)c(Cl)c1 (some centres unmarked) [compound 71] | < 1000 | < 1000 | < 100 | 50 to 70
20 | C[C@H]1CC2(CCN(c3ccc(OC4CN(C5CCN(c6ccc7c(c6)C(=O)N(C6CCC(=O)NC6=O)C7=O)CC5)C4)nc3)CC2)CN1c1ccc(C#N)c(Cl)c1 (some centres unmarked) [compound 72] | < 1000 | < 1000 | < 100 | 50 to 70
21 | C[C@H]1CC2(CCN(c3ccc(OC4CN(C5CN(c6ccc7c(c6)C(=O)N(C6CCC(=O)NC6=O)C7=O)C5)C4)nn3)CC2)CN1c1ccc(C#N)c(Cl)c1 (some centres unmarked) [compound 73] | < 1000 | < 1000 | < 100 | 50 to 70
22 | C[C@H]1CC2(CCN(c3ccc(OC4CN(C5CCN(c6ccc7c(c6)C(=O)N(C6CCC(=O)NC6=O)C7=O)CC5)C4)nn3)CC2)CN1c1ccc(C#N)c(Cl)c1 (some centres unmarked) [compound 74] | < 1000 | < 1000 | < 100 | 50 to 70
23 | C[C@H]1CC2(CCN(c3cnc(N4CCN(CC5CN(c6ccc7c(c6)C(=O)N(C6CCC(=O)NC6=O)C7=O)C5)CC4)nc3)CC2)CN1c1ccc(C#N)c(Cl)c1 (some centres unmarked) [compound 82] | < 10 | < 10 | < 1 | > 90
24 | C[C@H]1CC2(CCN(c3cnc(N4CCN(CC5CCN(c6ccc7c(c6)C(=O)N(C6CCC(=O)NC6=O)C7=O)CC5)CC4)nc3)CC2)CN1c1ccc(C#N)c(Cl)c1 (some centres unmarked) [compound 83] | < 10 | < 10 | < 1 | > 90
25 | C[C@H]1CC2(CCN(c3ccc(N4CCC(OC5CN(c6ccc7c(c6)C(=O)N(C6CCC(=O)NC6=O)C7=O)C5)CC4)cc3)CC2)CN1c1ccc(C#N)c(Cl)c1 (some centres unmarked) [compound 90] | < 10 | < 10 | < 1 | > 90
26 | C[C@H]1CC2(CCN(c3ccc(N4CCC(OC5CN(c6ccc7c(c6)C(=O)N(C6CCC(=O)NC6=O)C7=O)C5)CC4)nc3)CC2)CN1c1ccc(C#N)c(Cl)c1 (some centres unmarked) [compound 91] | < 10 | < 10 | < 1 | > 90
27 | C[C@H]1CC2(CCN(c3ccc(N4CCC(OC5CN(c6ccc7c(c6)C(=O)N(C6CCC(=O)NC6=O)C7=O)C5)CC4)cn3)CC2)CN1c1ccc(C#N)c(Cl)c1 (some centres unmarked) [compound 92] | < 10 | < 10 | < 1 | > 90
28 | C[C@H]1CC2(CCN(c3ccc(N4CCC(N(C)C5CN(c6ccc7c(c6)C(=O)N(C6CCC(=O)NC6=O)C7=O)C5)CC4)cc3)CC2)CN1c1ccc(C#N)c(Cl)c1 (stereo partly drawn) [compound 119, 2-chloro-4-((3S)-8-(4-(4-((1-(2-(2,6-dioxopiperidin-3-yl)-1,3-dioxoisoindolin-5-yl)azetidin-3-yl)(methyl)amino)piperidin-1-yl)phenyl)-3-methyl-2,8-diazaspiro[4.5]decan-2-yl)benzonitrile] | < 10 | < 10 | – | > 90
